Laboratory results published in patent publication US8932597B2 (priority 2008, dated 2015).

Test system: anti-M2 human monoclonal antibody Z3G1
Assay type: binding

Substance: 1277 (MSLRTEVETPIRNEWGCRCN; epitope peptide) [compound 1277]
- Signal (peptides that bind to Z3G1): 2554

Substance: 1554 (SLLCEVGSLLCEV; epitope peptide) [compound 1554]
- Signal (peptides that show specific binding to Z3G1): 2399

Substance: 1267 (MSILTEVETPIRNEWGCRCN; epitope peptide) [compound 1267]
- Signal (peptides that bind to Z3G1): 2582

Substance: 1326 (MSLLCEVETPIRCE; epitope peptide) [compound 1326]
- Signal (peptides that bind to Z3G1): 2772

Substance: 1304 (MSLLTEVITPIRNEWGCRCN; epitope peptide) [compound 1304]
- Signal (peptides that bind to Z3G1): 2668

Substance: 1307 (MSLLTEVNTPIRNEWGCRCN; epitope peptide) [compound 1307]
- Signal (peptides that bind to Z3G1): 2807

Substance: 1255 (MHLLTEVETPIRNEWGCRCN; epitope peptide) [compound 1255]
- Signal (peptides that bind to Z3G1): 2449

Substance: 1306 (MSLLTEVLTPIRNEWGCRCN; epitope peptide) [compound 1306]
- Signal (peptides that bind to Z3G1): 2714

Substance: 1308 (MSLLTEVPTPIRNEWGCRCN; epitope peptide) [compound 1308]
- Signal (peptides that bind to Z3G1): 2380

Substance: 1590 (SLLWEVETPIRNEWGCRCNDSSD; epitope peptide) [compound 1590]
- Signal (peptides that show specific binding to Z3G1): 2221

Substance: 1258 (MLLLTEVETPIRNEWGCRCN; epitope peptide) [compound 1258]
- Signal (peptides that bind to Z3G1): 2091

Substance: 1252 (MELLTEVETPIRNEWGCRCN; epitope peptide) [compound 1252]
- Signal (peptides that bind to Z3G1): 2679

Substance: 1356 (CLLTEVETPCRNE; epitope peptide) [compound 1356]
- Signal (peptides that bind to Z3G1): 1991

Substance: 1389 (SLLCEVETPIRNCWG; epitope peptide) [compound 1389]
- Signal (peptides that bind to Z3G1): 2789

Substance: 1511 (CLTEVETPIRLLTEVETPICETPIRNEWG; epitope peptide; MISC_FEATURE (1)..(1): C is an attachment site for a CLIP; MISC_FEATURE (10)..(10): R is an attachment site for a CLIP; MISC_FEATURE (11)..(11): L is an attachment site for a CLIP; MISC_FEATURE (29)..(29): G is an attachment site for a CLIP) [compound 1511]
- Signal (peptides that show specific binding to Z3G1): 2175

Substance: 1496 (CEVETPIRNELLTEVETPICVETPIRNEW; epitope peptide; MISC_FEATURE (1)..(1): C is an attachment site for a CLIP; MISC_FEATURE (10)..(10): E is an attachment site for a CLIP; MISC_FEATURE (11)..(11): L is an attachment site for a CLIP; MISC_FEATURE (29)..(29): W is an attachment site for a CLIP) [compound 1496]
- Signal (peptides that bind to Z3G1): 1625

Substance: 634 (SLLTEVETPIRNEWGCRANDSSD; epitope peptide) [compound 634]
- Signal (peptides that show specific binding to Z3G1): 2265

Substance: 1331 (MSLLCEVCTPIRNE; epitope peptide) [compound 1331]
- Signal (peptides that bind to Z3G1): 2601

Substance: 1257 (MKLLTEVETPIRNEWGCRCN; epitope peptide) [compound 1257]
- Signal (peptides that bind to Z3G1): 2629

Substance: 1591 (SLLYEVETPIRNEWGCRCNDSSD; epitope peptide) [compound 1591]
- Signal (peptides that show specific binding to Z3G1): 2181

Substance: 1581 (SLLFEVETPIRNEWGCRCNDSSD; epitope peptide) [compound 1581]
- Signal (peptides that show specific binding to Z3G1): 2137

Substance: 1276 (MSLQTEVETPIRNEWGCRCN; epitope peptide) [compound 1276]
- Signal (peptides that bind to Z3G1): 2792

Substance: 1336 (MSLLCEVGMSCLTEV; epitope peptide) [compound 1336]
- Signal (peptides that bind to Z3G1): 2846

Substance: 1586 (SLLLEVETPIRNEWGCRCNDSSD; epitope peptide) [compound 1586]
- Signal (peptides that show specific binding to Z3G1): 2344

Substance: 1513 (CEVETPIRNELLTEVETPICETPIRNEWG; epitope peptide; MISC_FEATURE (1)..(1): C is an attachment site for a CLIP; MISC_FEATURE (10)..(10): E is an attachment site for a CLIP; MISC_FEATURE (11)..(11): L is an attachment site for a CLIP; MISC_FEATURE (29)..(29): G is an attachment site for a CLIP) [compound 1513]
- Signal (peptides that show specific binding to Z3G1): 2466

Substance: 1346 (MCLLTEVGMSLLTCV; epitope peptide) [compound 1346]
- Signal (peptides that bind to Z3G1): 1098

Substance: 1334 (MSLLCEVGMCLLTEV; epitope peptide) [compound 1334]
- Signal (peptides that bind to Z3G1): 2676

Substance: 1364 (SLLCEVETPCRNE; epitope peptide) [compound 1364]
- Signal (peptides that bind to Z3G1): 2035

Substance: 1260 (MNLLTEVETPIRNEWGCRCN; epitope peptide) [compound 1260]
- Signal (peptides that bind to Z3G1): 2733

Substance: 1254 (MGLLTEVETPIRNEWGCRCN; epitope peptide) [compound 1254]
- Signal (peptides that bind to Z3G1): 2635

Substance: 1567 (HLLTEVETPIRNEWGCRCNDSSD; epitope peptide) [compound 1567]
- Signal (peptides that show specific binding to Z3G1): 1946

Substance: 1569 (KLLTEVETPIRNEWGCRCNDSSD; epitope peptide) [compound 1569]
- Signal (peptides that show specific binding to Z3G1): 1826

Substance: 1394 (SLLCEVECPIRNEWG; epitope peptide) [compound 1394]
- Signal (peptides that bind to Z3G1): 2529

Substance: 1283 (MSLLGEVETPIRNEWGCRCN; epitope peptide) [compound 1283]
- Signal (peptides that bind to Z3G1): 2717

Substance: 1575 (WLLTEVETPIRNEWGCRCNDSSD; epitope peptide) [compound 1575]
- Signal (peptides that show specific binding to Z3G1): 2180

Substance: 1552 (SLLCEVGSLCTEV; epitope peptide) [compound 1552]
- Signal (peptides that show specific binding to Z3G1): 2722

Substance: 1341 (MSLLCEVGMSLLCEV; epitope peptide) [compound 1341]
- Signal (peptides that bind to Z3G1): 2851

Substance: 1475 (CETPIRNEWGSLLTEVETPCEVETPIRNE; epitope peptide; MISC_FEATURE (1)..(1): C is an attachment site for a CLIP; MISC_FEATURE (10)..(10): G is an attachment site for a CLIP; MISC_FEATURE (11)..(11): S is an attachment site for a CLIP; MISC_FEATURE (29)..(29): E is an attachment site for a CLIP) [compound 1475]
- Signal (peptides that bind to Z3G1): 2642

Substance: 1289 (MSLLNEVETPIRNEWGCRCN; epitope peptide) [compound 1289]
- Signal (peptides that bind to Z3G1): 2824

Substance: 1556 (CSCLCEVGSLLCEV; epitope peptide) [compound 1556]
- Signal (peptides that show specific binding to Z3G1): 1583

Substance: 1268 (MSMLTEVETPIRNEWGCRCN; epitope peptide) [compound 1268]
- Signal (peptides that bind to Z3G1): 1329

Substance: 1333 (MSLLCEVETPIRNE; epitope peptide) [compound 1333]
- Signal (peptides that bind to Z3G1): 2454

Substance: 1579 (SLLDEVETPIRNEWGCRCNDSSD; epitope peptide) [compound 1579]
- Signal (peptides that show specific binding to Z3G1): 2276

Substance: 1382 (CLLTEVETCIRNEWG; epitope peptide) [compound 1382]
- Signal (peptides that bind to Z3G1): 2296

Substance: 1251 (MDLLTEVETPIRNEWGCRCN; epitope peptide) [compound 1251]
- Signal (peptides that bind to Z3G1): 2726

Substance: 1587 (SLLNEVETPIRNEWGCRCNDSSD; epitope peptide) [compound 1587]
- Signal (peptides that show specific binding to Z3G1): 2425

Substance: 1313 (CMSLLCEVETPIRNE; epitope peptide) [compound 1313]
- Signal (peptides that bind to Z3G1): 2582

Substance: 1280 (MSLLDEVETPIRNEWGCRCN; epitope peptide) [compound 1280]
- Signal (peptides that bind to Z3G1): 2763

Substance: 1335 (MCLLTEVGMSCLTEV; epitope peptide) [compound 1335]
- Signal (peptides that bind to Z3G1): 1869

Substance: 1301 (MSLLTEVFTPIRNEWGCRCN; epitope peptide) [compound 1301]
- Signal (peptides that bind to Z3G1): 1858

Substance: 1495 (CTEVETPIRNLLTEVETPICVETPIRNEW; epitope peptide; MISC_FEATURE (1)..(1): C is an attachment site for a CLIP; MISC_FEATURE (10)..(10): N is an attachment site for a CLIP; MISC_FEATURE (11)..(11): L is an attachment site for a CLIP; MISC_FEATURE (29)..(29): W is an attachment site for a CLIP) [compound 1495]
- Signal (peptides that bind to Z3G1): 2088

Substance: 1265 (MWLLTEVETPIRNEWGCRCN; epitope peptide) [compound 1265]
- Signal (peptides that bind to Z3G1): 2615

Substance: 1473 (CEVETPIRNESLLTEVETPCEVETPIRNE; epitope peptide; MISC_FEATURE (1)..(1): C is an attachment site for a CLIP; MISC_FEATURE (10)..(10): E is an attachment site for a CLIP; MISC_FEATURE (11)..(11): S is an attachment site for a CLIP; MISC_FEATURE (29)..(29): E is an attachment site for a CLIP) [compound 1473]
- Signal (peptides that bind to Z3G1): 2006

Substance: 1573 (QLLTEVETPIRNEWGCRCNDSSD; epitope peptide) [compound 1573]
- Signal (peptides that show specific binding to Z3G1): 1627

Substance: 1583 (SLLHEVETPIRNEWGCRCNDSSD; epitope peptide) [compound 1583]
- Signal (peptides that show specific binding to Z3G1): 2462
